Where a SMILES comes first, the peptide text is derived from it. The star is where a group is joined. Palmitoyl = CCCCCCCCCCCCCCCC(=O)*
How the values were obtained:
[1] = system: GALV-RV transduction of CD4+ T cells; test: γ-Retroviral transduction assay of CD4+ T cells; type: cell-based, Human; conditions: GALV-RV, 0.26, 1.3, 6.5 µM; GFP+ cells after 3 days; performed once
Protocol: γ‐Retroviral transduction Assay CD4+ T cells: Human CD4+ T cells were isolated from a Buffy coat using RosetteSep Human CD4+ Enrichment Cocktail ([…] Technologies) according to manufacturer's protocol. Isolated T cells were activated using Dynabeads Human T‐Activator CD3/CD28 (GibcoTM) according to manufacturer's protocol in presence of 10 ng mL^−1 IL‐2 (Miltenyi Biotec) for three days. After 3 days the magnetic Dynabeads were removed using a magnet and T cells were cultured in presence of 9 ng mL^−1 IL‐7 (Miltenyi Biotec) and 10 ng mL^−1 IL‐15 (Miltenyi Biotec). After 1 day 5 × 10^5 T cells were transduced with GALV‐γ‐RV in absence and presence of PA1, PA2, EF‐C (0.26, 1.3 and 6.5 µM) and Vectofusin−1 (10 µg mL^−1; Miltenyi Biotec), or RetroNectin (20 µg mL^−1; Takara Bio). The concentration of the transduction enhancers corresponds to the concentration on cells and in the case for RetroNectin it corresponds to the concentration that was used to precoat the 24‐well plate. The 24‐well plate was coated with RetroNectin and incubated overnight at 4°C. Wells were blocked with PBS containing 2% BSA for 30 min and washed twice with PBS. […] After 3 days GFP+ T cells were analyzed by flow cytometry. Viability was determined using LIVE/DEAD Fixable Aqua Dead Cell Stain Kit (ThermoFisher Scientific) according to manufacturer's protocol. […]

HeLa cells [2] = test: Confocal microscopy degradation study with PA1-3 and HeLa cells; type: in vitro ADME; conditions: for degradation of aggregates > 10 µm^2 over 3 days: HeLa cells, 4 µg peptide (20 µg mL-1) added to 40,000 cells, 37°C, 30 min vs 3 d, Proteostat stain, confocal microscopy
Protocol: (§1) Confocal laser scanning microscopy and degradation study with PA1‐3 and HeLa cells: HeLa cells were seeded one day prior to conducting the assay (40000/well) in an 8‐well IBIDI slide. 4 µL of the preformed peptide fibrils (1 mg mL^−1) were diluted with 4 µL Proteostat (Enzo Life Science, 1 µL stock in 999 µL PBS) and incubated for 10 min and further diluted with medium to receive a final peptide concentration of 20 µg mL^−1. The nucleus of the HeLa cells was stained with Hoechst 33 342 (NucBlue, Thermo Fisher Scientific). The peptide solution was transferred to the HeLa cells and incubated for 30 min at 37°C before washing three times with PBS. The interaction of fibril clusters with cells was monitored after 30 min incubation time on a Stellaris 8 confocal laser scanning microscope (Leica) equipped with a 20x air objective and laser excitation wavelengths of 405 nm (Hoechst) and 561 nm (Proteostat). For the evaluation of aggregate degradation, the samples were further incubated at 37°C for 3 d and analyzed without any additional washing step. The evaluation of aggregate size and number was conducted by analyzing Proteostat stained aggregates via the 3D objects counter function of ImageJ 1.53f51 for 3 individual measurements (area 581.25 µm × 581.25 µm). […] The number of aggregates larger than 10 µm^2 were counted via the 3D objects counter function of ImageJ 1.53f51. The mean number and standard deviations were determined by averaging at least three technical triplicates.

ThT fluorescence = type: physicochemical; design: key: + = ThT active; − = no ThT fluorescence observed; conditions: 1 mg mL-1 in PBS; ThT-active if fluorescence at least twice the control (PBS with 10% DMSO)
Protocol: ThT‐fluorescence: 20 µL 50 µM of ThT solution in PBS was pipetted in a black 384 well‐plate and 4 µL of the nanofibril solution 1 mg mL^−1 were added. For reference PBS with 10% DMSO (4 µL) instead of fibril solution was added. Subsequently, fluorescence emission was recorded λem = 488 nm upon excitation at λex = 440 nm with 10 nm bandwidth and multiple reads per well (3 × 3) using a Spark 20 M microplate reader (Tecan Group, Ltd). Data processing was performed with Origin software. A peptide fibril was considered as ThT‐active if the fluorescence intensity was at least twice as strong compared to the control (PBS containing 10% DMSO).

Jurkat cells = test: CellTiter-Glo cell viability, Jurkat cells; type: cell-based; conditions: increasing peptide concentrations, 3 days, biological triplicate
Protocol: Cell Viability with TZM‐bl and Jurkat cells: The cell viability after addition of peptides to TZM‐bl cells and Jurkat was studied via the CellTiter‐Glo assay. To this end, 20000 cells TZM‐bl or 50000 Jurkat cells were incubated with serial diluted peptides. After 3 days the supernatant was removed and 100 µL CellTiter‐Glo Reagent 1:1 diluted in PBS was added. After 10 min 50 µL was transferred to white microplate and luminescence was recorded by Orion microplate luminometer.

HeLa cells [3] = test: Cell-PA interaction by confocal laser scanning microscopy; type: cell-based; conditions: peptide 20 µg mL-1 added for 30 min, washed, Proteostat stain
Protocol: as §1
Figure S6 Laser scanning microscopy micrographs of A cells only (control), and Proteostat-stained (red) peptides B EF-
C ([…]), C PA1, D PA2, E PA3, F P1, G P2, H P3 added to HeLa cells (nucleus in blue). The peptides (20 µg mL-
1) were added to cells for 30 min, washed and analyzed. […]

Row | Molecule | transduction efficacy in primary CD4+ T cells (in words) [1] | degradation of aggregates > 10 µm^2 over 3 days (HeLa cells [2]) [%] | ThT fluorescence (ThT fluorescence) | viability of Jurkat cells (Jurkat cells) | association with cellular membranes (HeLa cells [3]) | aggregate size (large aggregates) (HeLa cells [2]; confocal aggregate size analysis with HeLa cells) [µm^2]
1 | C16-VVVAAAKKK-NH2 [PA1] | in the range of commercially available gold‐standard enhancers RetroNectin and Vectofusin‐1 | 94 | + | did not reduce the viability | association with cellular membranes | 
2 | CCCCCCCCCCCCCCCC(=O)N[C@@H](Cc1ccccc1)C(=O)N[C@@H](CCC(N)=O)C(=O)N[C@@H](Cc1ccccc1)C(=O)N[C@@H](CCCCN)C(=O)N[C@@H](Cc1ccccc1)C(=O)N[C@@H](CCCCN)C(=O)N[C@@H](CS)C(N)=O [PA2] (Palmitoyl-FQFKFKC-NH2) | in the range of commercially available gold‐standard enhancers RetroNectin and Vectofusin‐1 | 52 | + | did not reduce the viability | association with cellular membranes | > 50

Reference: article PMC11468294, “Peptide Amphiphiles as Biodegradable Adjuvants for Efficient Retroviral Gene Delivery” (Advanced Healthcare Materials, 2023)
